≈ marks a conversion by molar mass, not a printed value.

For the data set the following is noted: buffer; pH 7.4; 200.0 µM.
A word on the kinetic solubility: it is solubility judged after dilution from a stock solution rather than from solid. Turning to `O=C(Nc1ccccc1)N1CCN(C(=O)Nc2ccccc2)CC1`, the kinetic solubility was 3.1 µg/mL (≈ 9.56 µM).
With `COc1ccc(S(=O)(=O)N2CCN3CCCC3C2)cc1` (stereo not given) the figure was 41.8 µg/mL (≈ 141 µM); with `C#CCSc1nc(C)cc(C(=O)OCC)c1C#N`, 7.2 µg/mL (≈ 27.7 µM); with `Cc1cc(=O)oc2cc(OCC(=O)NC3CCCCC3)ccc12`, 7.5 µg/mL (≈ 23.8 µM).
The figure for `C#CCOc1c(Cl)cc(/C=C2/C(=O)ON=C2C)cc1OC` is 43.5 µg/mL (≈ 142 µM); for `CCC(=O)N(Cc1cc(=O)[nH]c2ccccc12)c1ccccc1C` it is 36.3 µg/mL (≈ 113 µM); for `Cc1ccc(C(=O)C2=C(O)C(=O)N(c3ncccn3)C2c2ccc(F)cc2)o1` (stereo not given) it is greater than 56.9 µg/mL.
With `C/C(=N/NC(=O)CNC(=O)c1ccncc1)c1ccco1` the figure was greater than 42.9 µg/mL; with `CN(C)c1ccc(Nc2cc(Cl)ncn2)cc1`, 9 µg/mL (≈ 36.2 µM).
The molecule `c1ccc(Sc2ccccn2)cc1` had a kinetic solubility greater than 28.1 µg/mL.
The figure for `COc1ccc(NC(=O)CCCc2ccccc2)c(OC)c1` is 36.4 µg/mL (≈ 122 µM).
Regarding `O=C(Nc1cc(S(=O)(=O)N2CCOCC2)ccc1Cl)c1cc([N+](=O)[O-])ccc1Cl`, the kinetic solubility was 2.8 µg/mL (≈ 6.08 µM).
Molecule `COc1ccccc1NC(=O)COC(=O)c1[nH]c(=O)[nH]c(=O)c1N` registered a kinetic solubility greater than 50.1 µg/mL.
The figure for `O=C(CN1c2cccc3cccc(c23)S1(=O)=O)N1CCCCC1` is greater than 49.6 µg/mL.
`CCOc1ccc(C(=O)CCN2CCOCC2)cc1.Cl` returned a kinetic solubility of 44.9 µg/mL.
With `Nc1ncccc1C(=O)OCC(=O)NC1CCCCCC1` the figure was 38 µg/mL (≈ 130 µM).
`Cc1cccc(C)c1OCC(=O)Nc1ccncc1` displayed a solubility (kinetic) of 21.8 µg/mL (≈ 85.1 µM).
Regarding `CCOc1ccc(NC(=O)C(CC(=O)O)Cc2ccc(C)cc2)cc1` (stereo not given), the solubility (kinetic) is greater than 51.2 µg/mL.
With `COc1ccccc1C(=O)CSc1cccc[n+]1[O-]`, the kinetic solubility amounted to 14.4 µg/mL (≈ 52.3 µM).
The figure for `CN=C1S/C(=C\c2ccc(O)c(OC)c2)C(=O)N1C` is 5.9 µg/mL (≈ 21.2 µM); for `O=C(NCCCn1ccnc1)c1ccc(Br)s1` it is 46.9 µg/mL (≈ 149 µM).
With `CN(C)C(=O)c1cc(C(=O)c2ccccc2)c[nH]1` the figure was greater than 36.3 µg/mL.
The figure for `COc1ccc(C(=O)O)cc1NCc1cccnc1` is 36.8 µg/mL (≈ 142 µM).
`COc1ccc(C)cc1NC(=O)CCCN1C(=O)NC(C)(C)C1=O` came in with a solubility (kinetic) greater than 50 µg/mL.
Take `CCCCCC#CCN1CCN(C23CC4CC(CC(C4)C2)C3)CC1`: the kinetic solubility stood at 42.8 µg/mL (≈ 130 µM).
The figure for `Cc1ccc(NC(=O)CCNC(=O)c2ccco2)cc1Cl` is 20.3 µg/mL (≈ 66.2 µM); for `CC(NS(=O)(=O)/C=C/c1ccccc1)C(=O)O` (stereo not given) it is 34.2 µg/mL (≈ 134 µM).
The figure for `CC(=O)N1CCN(S(=O)(=O)c2cccc(C(=O)OCC(=O)N(Cc3ccccc3)C(C)(C)C)c2)CC1` is 60.5 µg/mL (≈ 117 µM); for `CCCCNc1c(N)n(CC(C)C)c(=O)[nH]c1=O` it is 35.9 µg/mL (≈ 141 µM); for `CCCNC(=O)c1nn2cc(Br)cnc2c1Cl` it is greater than 47.6 µg/mL.
With `COCC(=O)Nc1ccc(Br)cc1C` the figure was 35.8 µg/mL (≈ 139 µM); with `C=CCn1cnc2c(sc3nc(C)cc(C)c32)c1=O`, 6.9 µg/mL (≈ 25.4 µM).
Turning to `Cc1cc2c(sc3ccccc32)c(C)n1.Cl`, the kinetic solubility was determined as 3.7 µg/mL.
Consider `O=[N+]([O-])c1ccc(N(CC2CO2)S(=O)(=O)c2ccccc2)cc1` (stereo not given), for which the kinetic solubility was 41.9 µg/mL (≈ 125 µM).
For the molecule `Cc1ccc(NC(=O)c2ccco2)nc1`, the kinetic solubility is 28.9 µg/mL (≈ 143 µM).
Consider `O=C(NCCc1ccc(Cl)cc1)C1CCN(c2ncccn2)CC1`, for which the kinetic solubility was determined as 6.7 µg/mL (≈ 19.4 µM).
The figure for `COc1ccc(C(CNc2ncnc3sccc23)N(C)C)cc1OC` (stereo not given) is 35.5 µg/mL (≈ 99 µM).
Regarding `O=C(NC1=NCCS1)C1CC(=O)N(c2ccc(Cl)cc2)C1` (stereo not given), the kinetic solubility is greater than 48.6 µg/mL.
`CCc1cccc(NS(=O)(=O)c2c(C)[nH]c(=O)[nH]c2=O)c1` gave a kinetic solubility greater than 46.4 µg/mL.
The figure for `CCCOc1ccccc1Cn1c(=O)oc2ccccc21` is 3.9 µg/mL (≈ 13.8 µM).
With `O=C(c1cc([N+](=O)[O-])cc([N+](=O)[O-])c1)N1CCN(C(=O)c2ccco2)CC1` the figure was 54 µg/mL (≈ 144 µM).
With `CCn1c(=O)c([N+](=O)[O-])c(NCc2ccco2)c2ccccc21` the figure was 0.6 µg/mL (≈ 1.92 µM).
Molecule `Cc1cc(C)nc(/N=C(\N)Nc2ccc(C(C)C)cc2)n1` yielded a kinetic solubility greater than 42.5 µg/mL.
With `CCOc1ccc(S(=O)(=O)N2CCN(c3ncccn3)CC2)cc1` the figure was 2.7 µg/mL (≈ 7.75 µM); with `C=CCn1c(SCc2ccc(C(=O)O)cc2)nc2sc(C)c(C)c2c1=O`, greater than 58 µg/mL; with `Cc1cccc(OCC(=O)NC2CC(C)(C)NC(C)(C)C2)c1`, greater than 45.7 µg/mL.
With `COc1cccc(NC(=O)CN(C)C(=O)c2cccc(S(=O)(=O)N3CC4(C)CC3CC(C)(C)C4)c2)c1` (stereo not given) the figure was 2 µg/mL (≈ 3.89 µM); with `c1csc(-c2cc(N3CCCCC3)c3ccccc3n2)c1`, 1.1 µg/mL (≈ 3.74 µM).
The figure for `O=C(Cc1ccccc1)NCC1OCCc2ccccc21` (stereo not given) is 30.9 µg/mL (≈ 110 µM); for `C=CCSc1nc(C)c(CCCC)c(=O)[nH]1` it is greater than 35.8 µg/mL; for `O=C(CN1CCN(c2ccccn2)CC1)Nc1cccc(F)c1` it is 19.9 µg/mL (≈ 63.3 µM).
In turn, `CCCN(CCC)S(=O)(=O)c1ccc(C(=O)O)cc1` showed a solubility (kinetic) greater than 42.8 µg/mL.
With `Cc1noc2ncnc(N3CCN(c4ccc(F)cc4)CC3)c12` the figure was 1.7 µg/mL (≈ 5.43 µM); with `Cc1noc(C)c1CSCC(=O)Nc1cccc(C(F)(F)F)c1`, greater than 51.7 µg/mL.
The figure for `O=C(NC(=S)Nc1ccc2oc(=O)ccc2c1)c1ccco1` is 2.8 µg/mL (≈ 8.91 µM).
The molecule `N/C(=N\[N+](=O)[O-])N1CCN(C(=O)c2ccccc2)CC1` gave a solubility (kinetic) greater than 41.6 µg/mL.
With `CCc1ccccc1NC(=S)N(Cc1cccs1)C1CCCC1` the figure was 13.9 µg/mL (≈ 40.3 µM); with `Cc1ccsc1CNC(=O)c1c(-c2ccccc2)noc1C`, 22.2 µg/mL (≈ 71.1 µM); with `N#CC1=C(N)Oc2cc(N)ccc2C1c1cccc(Br)c1` (stereo not given), 3.5 µg/mL (≈ 10.2 µM).
For the molecule `Cc1ccc(C)c(NC(=S)N(CCc2ccncc2)C(C)C)c1`, the kinetic solubility is greater than 49.1 µg/mL.
On to `O=C(CSc1cc(Cl)ccc1Cl)NCCN1C(=O)CSC1=O`, for which the solubility (kinetic) is greater than 56.9 µg/mL.
The figure for `CC(=O)c1ccc(NC(=O)CN2C(=O)NC3(CCc4ccccc43)C2=O)cc1` (stereo not given) is greater than 56.6 µg/mL.
With `CCOC(=O)c1cc(-c2cccc([N+](=O)[O-])c2)on1` the figure was 2.1 µg/mL (≈ 8.01 µM).
Molecule `CCOc1ccc(NC(=O)C2C3CC/C=C\CCC32)cc1` (stereo not given) showed a kinetic solubility of less than 0.6 µg/mL.
The figure for `COc1cccc(CNC(=O)N[C@@H](C)C(=O)O)c1` is greater than 37.8 µg/mL; for `Cc1ccc(SCC(=O)NC(=O)NC(C)C)c(C)c1` it is 20 µg/mL (≈ 71.3 µM).
The figure for `N#C/C(=C\c1ccc(F)cc1)C(=O)Nc1ccccn1` is 19 µg/mL (≈ 71.1 µM).
For the molecule `Cc1ccc(NC(=S)NCC(C)CSc2ccc(Cl)cc2)cc1` (stereo not given), the kinetic solubility is 1.1 µg/mL (≈ 3.01 µM).
With `CC(C)CCN1CCN(Cc2ccc(C(F)(F)F)cc2)CC1CCO` (stereo not given) the figure was greater than 53.8 µg/mL; with `CCc1ccc(CCC(=O)Nc2ccc(Br)cc2)o1`, 4.4 µg/mL (≈ 13.7 µM); with `COc1ccc(OC)c(NC(=S)N2CCN(C(=O)C3CCCO3)CC2)c1` (stereo not given), greater than 56.9 µg/mL.
The figure for `O=C(COC(=O)CNC(=O)c1ccccc1F)NCC(F)(F)F` is greater than 50.4 µg/mL; for `CCN1CCCC1CNC(=O)C(=O)NCc1ccccc1` (stereo not given) it is greater than 43.4 µg/mL; for `COc1ccc(O)c(/C=N/c2nc3ccccc3n2C)c1` it is 15 µg/mL (≈ 53.3 µM).
With `CC1CCCCC1NC(=O)COC(=O)c1ccc2c(c1)NC(=O)CS2` (stereo not given) the figure was 9.8 µg/mL (≈ 27 µM); with `O=C(O)C1CCN(S(=O)(=O)c2ccc(Cl)s2)CC1`, greater than 46.5 µg/mL.
`O=C(NCCN1CCOCC1)c1cc(-c2ccccc2Cl)on1` showed a kinetic solubility greater than 50.4 µg/mL.
With `O=C(CSc1ccc([N+](=O)[O-])cn1)Nc1ccc(N2CCOCC2)cc1` the figure was 0.9 µg/mL (≈ 2.4 µM); with `CC(=O)Nc1ccc(S(=O)(=O)NCCC(=O)Nc2ncccc2C)cc1`, greater than 56.5 µg/mL.
The figure for `Cc1ccc(CC(=O)OCC(=O)c2ccc[nH]2)cc1C` is 10.9 µg/mL (≈ 40.2 µM).
In turn, `COc1ccc(C(=O)NC2=NCCS2)cc1` displayed a kinetic solubility greater than 35.4 µg/mL.
With `O=S(=O)(c1ccc(Cl)cc1)N1CCN(CCc2ccncc2)CC1` the figure was 18.3 µg/mL (≈ 50 µM).
In turn, `O=C(Cc1ccccc1)NCCc1cnc[nH]1` registered a solubility (kinetic) greater than 34.4 µg/mL.
Take `O=C(CSCc1c(Cl)cccc1Cl)Nc1cccnc1`: the solubility (kinetic) worked out at 35.9 µg/mL (≈ 110 µM).
Turning to `CSc1ccc(NC(=O)NCc2cccnc2)cc1`, the solubility (kinetic) was greater than 41 µg/mL.
In turn, `O=C(Nc1cccc([N+](=O)[O-])c1)N1CCN(c2ccccc2)CC1` registered a solubility (kinetic) of 3.6 µg/mL (≈ 11 µM).
With `O=C(NCCc1cccs1)C(c1ccccc1)c1ccccc1` the figure was 1.5 µg/mL (≈ 4.67 µM); with `Cc1ccc(NC(=O)COCC(=O)Nc2ccc(F)cc2)cc1`, 37.3 µg/mL (≈ 118 µM).
With `CC1CN(C(=S)Nc2cccc(Cl)c2)CC(C)O1` (stereo not given) the figure was greater than 42.7 µg/mL.
The figure for `CN(C(=O)CSc1ccc2c(c1)OCCO2)c1ccccc1` is greater than 47.3 µg/mL; for `O=C(Nc1ccncc1)Nc1ccncc1` it is greater than 32.1 µg/mL.
Regarding `CC1CCCC(NC(=O)Cn2cc([N+](=O)[O-])ccc2=O)C1C` (stereo not given), the kinetic solubility came out at 44 µg/mL (≈ 143 µM).
The figure for `Cc1ccc(C(=O)N/N=C\c2cccnc2)s1` is greater than 36.8 µg/mL; for `Cc1cc(C)nc(NC(=S)Nc2cccc(F)c2)c1` it is less than 0.2 µg/mL; for `COc1ccc(NC(=O)C2CCCC2)cc1` it is 30.3 µg/mL (≈ 138 µM).
With `O=C(NN1CCOCC1)c1ccccc1Br` the figure was greater than 42.8 µg/mL; with `Cc1cccc(C(=O)NCC(=O)OCC(=O)N2CCCCC2)c1`, 46 µg/mL (≈ 144 µM); with `O=C(CS(=O)(=O)c1ccccc1)NCc1ccco1`, 40.7 µg/mL (≈ 146 µM).
Molecule `Cc1cccc(N2CCN(C(=O)NC3CCCCC3)CC2)c1C` displayed a solubility (kinetic) of 0.7 µg/mL (≈ 2.22 µM).
The figure for `Cc1ccc(NC(=S)NCCc2ccccc2)nc1` is less than 0.2 µg/mL.
In the case of `CC12CCC(=O)N1C(C(=O)Nc1cccc(F)c1)CS2` (stereo not given), the solubility (kinetic) was greater than 44.2 µg/mL.
`O=C(Nc1ccccc1N1CCCCC1)c1cccc(Cl)c1` came in with a solubility (kinetic) of less than 0.3 µg/mL.
With `Cc1cccc(C(=O)Oc2cc(C)[nH]c(=O)c2[N+](=O)[O-])c1` the figure was greater than 43.2 µg/mL.
With `O=C(/C=C/c1ccc(F)cc1)NC(=S)Nc1ccccc1` the figure was 1.3 µg/mL (≈ 4.33 µM).
For the molecule `C=CCn1c(NCc2ccco2)nc2ccccc21`, the solubility (kinetic) was greater than 38 µg/mL.

Source of the values: PubChem BioAssay AID1996.
